Data on 2 molecules can be found in patent publication US8877736B2, “Method for treating keloid by administering 3′sialyllactose or 6′sialyllactose as a pharmaceutical or cosmetic” (Benebiosis Co., Ltd., priority 2009, dated 2014).

Each structure is given as a SMILES string. “Also recorded” adds a separate entry of the source.

Holding throughout (format): cell-based
The subject of data set [1] is Human keloid fibroblasts (CRL 1762). The data set can be described thus: XTT cell proliferation analysis of keloid fibroblasts. Conditions: 1 mM, 0-5 days, compared with negative control (PBS), FIG. 2. On the procedure: (§1) Human keloid fibroblasts (CRL 1762) were purchased from ATCC. Medium has the following composition: DMEM (Dulbecco's Modified Eagle's Medium), 4 mM L-glutamine, 100 μg/ml streptomycin, 100 U/ml penicillin and 10% fetal bovine serum. The fibroblasts were incubated at 37° C. in a CO2 incubator under humid atmosphere (5% CO2, 95% air). Medium was replaced every 3-4 days.
The rate of cell proliferation was measured using Roche's Cell Proliferation Kit II (XTT) system. Keloid fibroblasts (KF) were plated at 2.0×10^3 cells/well in a 96-well plate and then treated 3′-SL, 6′-SL and PBS at a concentration of 1 mM, respectively. After 0, 1, 3 and 5 days, KF was incubated with 50 μl/well of XTT (sodium 3′-[1-(phenylaminocarbonyl)-3,4-tetrazolium]-bis(4-methoxy-6-nitro) benzene sulfonic acid hydrate) reagent for 4 hr at 37° C. and the absorbance at 470 nm was measured using a microplate reader. The relative survival rates of groups treated with sialyllactose were calculated with reference to untreated sialyllactose group (i.e., excipient treatment group, 100% survival rate).
On the technique in general: Tetrazolium dyes change colour on reduction, which living cells bring about.

Data set [2] shares this test system. Briefly: Cell counting of keloid fibroblasts (trypan blue). As to conditions: 1 mM, up to 12 days, compared with negative control (PBS), FIG. 1. As for the experimental part:
as §1
Keloid fibroblasts (KF) were plated at 5×10^4 cells/well in a 6-well plate. 24 hours later, KF was incubated with 1 mM 3′-sialyllactose (3′-SL), 6′-sialyllactose (6′-SL) or excipient (Phosphate buffered saline, PBS). 3′-Sialyllactose (3′-N-Acetylneuraminyl-D-lactose, 3′-Sialyl-D-lactose or α-NeuNAc-(2→3)-β-D-Gal-(1→4)-D-Glc) or 6′-sialyllactose (6′-N-Acetylneuraminyl-lactose, 6′-Sialyl-D-lactose, or α-NeuNAc-(2→6)-β-D-Gal-(1→4)-D-Glc) were purchased from Sigma-Aldrich. After 0, 1, 5, 7, 9, and 12 days, KF was collected using trypsin-EDTA and stained with trypan blue, followed by cell counting using a blood cell counter (C-Chip DHC N15, Incyto).

Data set [3] has the same test system. The data set can be described thus: TUNEL analysis of apoptosis of keloid fibroblasts. As to conditions: 1 mM, 0-5 days, FIG. 3. As for the experimental part:
as §1
Using in situ cell death detection kit (TUNEL, Roche Diagnostics), apoptosis was analyzed and DNA fragmentation in keloid fibroblasts was quantified. A single layer of keloid fibroblasts was cultured directly in a tissue culture flask and then incubated with 1 mM 3′-SL, 6′-SL or PBS. Following 0, 1, 3 and 5 days, the analysis was carried out according to the manufacturer's manual.

The test system of another data set is RAW 264.7 cells. The data set can be described thus: Cytotoxicity analysis, MTT assay on RAW 264.7 cells. As to conditions: 0.001, 0.01, 0.1 and 1 mM, 5 days, compared with negative control (PBS), FIGS. 4a-4b. As for the experimental part: Cytotoxicity of sialyllactose to cells other than keloid fibroblasts was analyzed RAW 264.7 cells (TIB-71) were purchased from ATCC. Dulbecco's Modified Eagle's Medium (DMEM) was purchased from JBI and supplemented with 100 U/ml penicillin, 100 μg/ml streptomycin, and 10% fetal bovine serum (FBS). Medium was replaced every 3-4 days. The cells were incubated at 37° C. in a CO2 incubator. For investigation of cell proliferation rate, MTT quantification was performed. RAW 264.7 cells were plated at 2.0×10^3 cells/well in a 96-well plate and 3′-SL or 6′-SL was treated at a concentration of 0.001, 0.01, 0.1, and 1 mM. A negative control group was treated with PBS. After 5 days, the cells were incubated with 500 μg/ml MTT solution for 4 hr at 37° C. […], the absorbance at 540 nm was measured using formazan in diumsulfoxide (DMSO). The relative survival rates of groups treated with sialyllactose were calculated with reference to untreated sialyllactose group (i.e., PBS treatment group, 100% survival rate).

As for `CC(=O)N[C@H]1[C@H]([C@H](O)[C@H](O)CO)O[C@@](O[C@H]2[C@@H](O)[C@@H](CO)O[C@@H](O[C@H]3[C@H](O)[C@@H](O)C(O)O[C@@H]3CO)[C@@H]2O)(C(=O)O)C[C@@H]1O` (stereo partly drawn) [3′-SL, α-NeuNAc-(2→3)-β-D-Gal-(1→4)-D-Glc], the “proliferation of keloid fibroblasts (XTT; text says MTT analysis)” value in data set [1] is “considerably inhibited”. In data set [2], the “growth of keloid fibroblasts (cell counting)” value was “considerably inhibited”. Moreover, in data set [3], the “apoptosis of keloid fibroblasts (TUNEL)” value is given as “induced”. Further, the “proliferation of RAW 264.7 cells (MTT)” value in the data set with RAW 264.7 cells is recorded as “not affected”.
Turning to `CC(=O)N[C@H]1[C@H]([C@H](O)[C@H](O)CO)O[C@@](OC[C@H]2O[C@@H](O[C@H]3[C@H](O)[C@@H](O)[C@H](O)O[C@@H]3CO)[C@H](O)[C@@H](O)[C@H]2O)(C(=O)O)C[C@@H]1O` [6′-SL, α-NeuNAc-(2→6)-β-D-Gal-(1→4)-D-Glc], the “proliferation of keloid fibroblasts (XTT; text says MTT analysis)” value in data set [1] is “considerably inhibited; also recorded: more significantly inhibited by 6′-SL than the 3′-SL”. Moreover, in data set [2], the “growth of keloid fibroblasts (cell counting)” value was “considerably inhibited; also recorded: more significantly inhibited by 6′-SL than the 3′-SL”. In addition, the figures for the “apoptosis of keloid fibroblasts (TUNEL)” value in data set [3] and in data set [3] (listed as 6′ SL) were “more significantly inhibited by 6′-SL than the 3′-SL” and “induced”, respectively. For the same molecule, the “proliferation of RAW 264.7 cells (MTT)” value with RAW 264.7 cells is recorded as “not affected”.
